{"source": "paper PMC3130785", "about": "“Small Compound 6-O-Angeloylplenolin Induces Mitotic Arrest and Exhibits Therapeutic Potentials in Multiple Myeloma” (PLoS ONE, 2011)", "key": {"[1]": {"tested_on": "U266, RPMI 8226, MM.1S, and MM.1R cells", "assay": "Trypan blue exclusion assay", "type": "cell-based, human", "details": "6-OAP 5 to 7.5 µM", "description": "U266, RPMI 8226 cells (1×10^4), primary CD138+ cells, PBMCs (5×10^4), and BMSCs (1×10^4) were cultured in 96-well dishes and incubated without or with 6-OAP at indicated concentration for 48 h. MM.1S and MM.1R cells (2×10^4) were seeded into 96-well dishes and pre-cultured for 24 h, then treated with 6-OAP for 48 h. Cell proliferation was determined by MTT assay. Cell viability was estimated by trypan blue dye exclusion."}, "[2]": {"tested_on": "MM.1S cells", "assay": "Cell cycle distribution by flow cytometry", "type": "cell-based, human", "details": "5 to 10 µM for 48 h", "description": "(§1) MM cells were synchronized to G1/S boundary by a double-thymidine block. Briefly, cells were treated with 2 mM thymidine (Sigma-Aldrich) for 16 h, released into fresh medium for 9 h and subjected again to thymidine for another 16 h and then exposed to 6-OAP for indicated time points. Cells were harvested, fixed with 70% cold ethanol, incubated with RNase, and stained with propidium iodide (PI) (Sigma-Aldrich). Cell cycle distribution was analyzed by flow cytometry and CellQuest software (Becton Dickson).\n(§2) Figure 2 6-OAP induces mitotic arrest in MM cells. (A) U266 cells were treated with 6-OAP at 7.5 µM for 0, 24, 48 h and imaged by Leica DMI 400B microscope. (B) U266 cells were treated with 6-OAP at indicated concentrations for 48 h. Cell cycle distribution was determined by flow cytometry. (C) MM.1S cells were treated with 5 µM 6-OAP for 48 h. Cell cycle distribution was determined by flow cytometry. (D) U266 cells were treated with 6-OAP at 5 to 7.5 µM for 24 h (left panel) or at 7.5 µM for 12 to 24 h (right panel). For immunofluorescence analysis of microtubules, cells was stained with an anti-α-tubulin antibody to visualize microtubules (green) and DAPI to counter stained DNA (blue) and observed by confocal microscopy. (E) Indicated cells were treated with 6-OAP at indicated concentration for 24 h, lysed, and Western blotting was performed using antibodies indicated. […]"}, "[3]": {"tested_on": "U266 cells", "assay": "Cell cycle distribution by flow cytometry", "type": "cell-based, human", "details": "5 to 10 µM for 48 h", "description": "as §1, §2"}, "[4]": {"tested_on": "phosphorylated H3 (pH3)", "assay": "Western blotting of mitotic marker", "type": "cell-based, human", "details": "U266, MM.1S and CD138+ primary cells; 24 h", "description": "Cell pellets were lysed in RIPA buffer containing 50 mM Tris pH 8.0, 150 mM NaCl, 0.1% SDS, 0.5% deoxycholate, 1% NP-40, 1 mM DTT, 1 mM NaF, 1 mM sodium vanadate, and protease inhibitors cocktail (Sigma). For immunoprecipitations, cells were lysed on ice for 15 minutes in RIPA buffer. Lysates were centrifuged. The supernatant was incubated with indicated antibodies overnight, after which protein A/G Plus beads (Santa Cruz Biotechnology) were added and incubated for 3 h. The beads were washed 4 times in RIPA buffer. Then the beads were resuspended in 1× sample buffer and boiled for 3 min. Protein extracts were quantitated and loaded on 8% to 12% sodium dodecyl sulfate polyacrylamide gel, electrophoresed, and transferred to a nitrocellulose membrane (Whatman). The membrane was incubated with primary antibody, washed, and incubated with horseradish peroxidase (HRP)–conjugated secondary antibody (Pierce). Detection was performed by using a chemiluminescent western detection kit (Cell Signaling). […]\nFigure 2 6-OAP induces mitotic arrest in MM cells. […] Cell cycle distribution was determined by flow cytometry. […] Cell cycle distribution was determined by flow cytometry. […]"}, "[5]": {"tested_on": "human HL-60 leukemia cells", "design": "method as in PMID 18077129", "details": "mitochondrial/caspase and NF-κB pathway; cited from earlier work"}}}
{"smiles": "CC=C(C)C(=O)OC1C2C(CC(C)C3C=CC(=O)C31C)OC(=O)C2C", "note": "(centres unmarked) [6-OAP, 6-O-angeloylplenolin]", "values": [{"measurement": "cell growth (trypan blue exclusion)", "setting": "[1]", "value": "markedly inhibited cell growth"}, {"measurement": "cells in G2/M phase", "setting": "[2]", "value": "accumulation"}, {"measurement": "cells in G2/M phase", "setting": "[3]", "value": "accumulation"}, {"measurement": "expression of pH3", "setting": "[4]", "value": "up-regulated pH3"}, {"measurement": "apoptosis", "setting": "[5]", "value": "induce apoptosis"}]}
